# Results as given in US7776826B2, “Method for fostering bone formation and preservation” (Unigene Laboratories, Inc., priority 2004, dated 2010).
# What was measured:
# Male Sprague-Dawley rats [1] = test: Serum osteocalcin concentration on day of sacrifice, Groups A-J; type: in vivo, rat; details: bmx rats; for serum osteocalcin level, in words: up to 21 days; for Osteocalcin mean: serum
# From the text: FIG. 5 provides a series of measurements of the serum osteocalcin concentration (in ng/ml) in the blood of the rats which are the subjects of FIGS. 3-4 on the day of sacrifice. The meaning of the abbreviations is the same as that in FIGS. 3-4;
# FIG. 5 provides a graphical representation of the osteocalcin levels determined, at the time of sacrifice, in the serum of rats subjected to the following treatment modalities: bmx+PBS; bmx+ parathyroid hormone (PTH[1-34]-NH2); bmx+salmon calcitonin (CT); and bmx+ parathyroid hormone (PTH[1-34]-NH2)+CT. It is well known by those of ordinary skill in this art that osteocalcin is a biochemical marker related to the number of osteoblasts, i.e, a measure of new bone growth, which may be measured in the blood serum of the animal. […] That is, administering CT reduces the rate of bone turn-over.
# Table 4 additionally provides the standard deviations for the values obtained during each of the indicated analyses, which standard deviations are also indicated in FIG. 5.
# On the day of sacrifice, each rat was euthanized in a CO2 chamber. The rat's blood was then collected via a cardiac puncture. The femurs were removed and fixed in a 4% formalin solution, after which they were dehydrated in a graded series of ethanol solutions.
# The bones were thereafter subjected to a variety of sample analysis techniques. These included X-ray analysis wherein the femurs were X-rayed in individually sealed plastic bags; PIXIMUS analysis using a Lunar PIXIMUS scanner to measure bone mineral density in the bone marrow cavity of the femurs; MicroCT analysis; and blood analysis for osteocalcin, PTH, CT, NTX and growth factors.
# Male Sprague-Dawley rats [2] = test: PIXIMUS (DEXA) analysis of femur distal marrow cavity BMD after left femur bone marrow ablation (bmx), Groups A-J; type: in vivo, rat
# From the text: FIG. 1 is a graphical representation of the results of a PIXIMUS analysis of the femur distal marrow cavity bone mineral density (“BMD”) of groups of laboratory rats which were sacrificed at one-week intervals during a three-week test regimen. The PIXIMUS analyzer is available from Lunar Corp., Palo Alto, Calif. and provides Dual Energy X-Ray Absorptiometry (“DEXA”) data for small animals such as mice and rats. Male Sprague-Dawley rats (5 animals per group) aged 9 weeks were sacrificed and tested at time 0 and after 1, 2 and 3 weeks. The various groups were subjected to the following treatment modalities: Group A—left femur control; Group B—left femur sham; Group C—mechanical bone marrow ablation (bmx) to alter the contents of the bone marrow cavity of the left femur; Group D—mechanical bone marrow ablation treatment (bmx) of the left femur, coupled with the administration of an amidated parathyroid hormone truncate (PTH[1-34]-NH2) during days 1-21; and Group E—a right (non-bmx) femur BMD measurement of rats treated during days 1-21 with an amidated parathyroid hormone truncate (PTH[1-34]-NH2) wherein the rat's left femur had undergone a bone ablation (bmx) treatment;
# FIG. 2 is a graphical representation of the results of a PIXIMUS analysis of the femur distal marrow cavity BMD of a second set of groups of male Sprague-Dawley rats (5 animals per group) aged 9 weeks which were sacrificed and tested at time 0 and after 1, 2 and 3 weeks. The various groups were subjected to the following treatment modalities: Group F—left femur control; Group G—left femur sham; Group H—mechanical bone marrow ablation (bmx) to alter the contents of the bone marrow cavity of the left femur; Group I—mechanical bone marrow ablation (bmx) of the left femur, coupled with administration of an amidated parathyroid hormone truncate (PTH[1-34]-NH2) during days 1-7, followed by the administration of a salmon calcitonin (sCT) antiresorptive agent during days 7-21; and Group J—a right femur BMD measurement of rats treated with an amidated parathyroid hormone truncate (PTH[1-34]-NH2) wherein the rat's left femur had undergone a bone marrow ablation (bmx) treatment;
# Absent the bone anabolic agent, the initial burst of bone formation is quickly followed by the resorption of newly formed bone by osteoclasts (see, e.g., the Group C curve in FIG. 1). […] Table 1 (below) sets forth the values upon which the curves obtained with Groups A-E in FIG. 1 are based. As no readings were taken for the Control (Group A) and Sham (Group B) groups at Week 1 and Week 2, these values were estimated for purposes of preparing the curves for these two Groups. Table 1, moreover, provides the standard deviations for the values obtained in each Group, which standard deviations are also indicated in FIG. 1.
# As indicated herein the bmx treatment was always administered to the rats' left femur and never to the right femur. The non-ablated contralateral femur was analyzed, however, throughout the testing protocols described herein as a control used for detecting the systemic effect of the bone anabolic agent. That is, the results achieved with the contralateral (right) femur permit one to exclude the effect attributable to the bmx treatment. Moreover, analysis of the rats' right femur control also enabled the inventors to determine whether the bmx treatment of the left femur had any effect on other skeletal sites located within the body of the rat.
# FIG. 2 is provided to illustrate, inter alia, the further beneficial effect achieved due to the overlapping (i.e., with PTH administration) or subsequent administration of the antiresorptive agent salmon calcitonin (sCT). First, a comparison of the curves obtained with Group H (bmx alone) and Group J (PTH+sCT with no bmx) to that obtained with Group I (bmx PTH+sCT) provide still further evidence of the synergistic effect attributable to the use of the method of the invention. […]
Substance,"serum osteocalcin level, in words (Male Sprague-Dawley rats [1])",Osteocalcin mean (Male Sprague-Dawley rats [1]; Day 0),Osteocalcin mean (Male Sprague-Dawley rats [1]; Day 7),Osteocalcin mean (Male Sprague-Dawley rats [1]; Day 14),Osteocalcin mean (Male Sprague-Dawley rats [1]; Day 21),"bone formation / resorption by DEXA BMD curves, in words (Male Sprague-Dawley rats [2]; left femur with bmx)","BMD (DEXA) (Male Sprague-Dawley rats [2]; left femur with bmx, Week 0)","BMD (DEXA) (Male Sprague-Dawley rats [2]; left femur with bmx, Week 1)","BMD (DEXA) (Male Sprague-Dawley rats [2]; left femur with bmx, Week 2)","BMD (DEXA) (Male Sprague-Dawley rats [2]; left femur with bmx, Week 3)","BMD (DEXA) (Male Sprague-Dawley rats [2]; right (non-bmx) femur, Week 0)","BMD (DEXA) (Male Sprague-Dawley rats [2]; right (non-bmx) femur, Week 1)","BMD (DEXA) (Male Sprague-Dawley rats [2]; right (non-bmx) femur, Week 2)","BMD (DEXA) (Male Sprague-Dawley rats [2]; right (non-bmx) femur, Week 3)"
"salmon calcitonin [CT, reference compound]",relatively steady state value of osteocalcin,108.2 ng/mL,100.5 ng/mL,101 ng/mL,69.5 ng/mL,significantly diminishes the proportion of the newly formed bone which is resorbed,–,–,–,–,–,–,–,–
PTH[1-34]-NH2,highest and most consistent level of osteocalcin,108.2 ng/mL,125.5 ng/mL,125.4 ng/mL,117.8 ng/mL,"unexpected increase in degree, speed and longevity of bone formation",0.096 ± .007 gm/cm^2,0.166 ± .004 gm/cm^2,0.200 ± .030 gm/cm^2,0.190 ± .008 gm/cm^2,0.097 ± .008 gm/cm^2,0.124 ± .007 gm/cm^2,0.141 ± .007 gm/cm^2,0.154 ± .007 gm/cm^2
